Assay results published in ChEMBL document CHEMBL1649488, “In vitro activities of echinocandins against Candida krusei determined by three methods: MIC and minimal fungicidal concentration measurements and time-kill studies” (2009).
Converted amounts (≈) assume the structure as drawn. Starred links: 1 amine or outer side, 2 acyl side, 3 side chain; linkers in the order of their positions; H or OH if unused. Positions of bridges follow the written chain, without caps; N, C: chain ends. Non-standard residues stand in square brackets, D forms with d. Residues, ends and D or L forms follow the SMILES beside them. *: point of attachment. hTyr(3S-OH,4S-OH,3'-OSO3H) = N[C@H](C(=O)O)[C@H](O)[C@@H](O)c1ccc(O)c(OS(=O)(=O)O)c1; Orn(4R-OH,5R-OH) = O=C([C@H](C[C@@H](O)[C@@H](O)N[*:3])N[*:1])[*:2]; Pro(3S-OH,4S-Me) = C[C@H]1CN[C@H](C(=O)O)[C@H]1O; X1 = CCCCCOc1ccc(-c2cc(-c3ccc(C(=O)*)cc3)no2)cc1; Gln(3R-OH) = NC(=O)C[C@@H](O)[C@H](N)C(=O)O; Hyp = O=C(O)[C@@H]1C[C@@H](O)CN1

How the values were obtained:
Format in all cases: functional
Pichia kudriavzevii [1] = assay: Antifungal activity against Candida krusei ATCC 6258 bloodstream forms assessed as minimum concentration producing >= 100% growth reduction after 24 hrs by M27-A3 microdilution method; details: ATCC 6258, 24 h
Pichia kudriavzevii [2] = assay: Fungicidal activity against Candida krusei ATCC 6258 bloodstream forms after 48 hrs by M27-A3 microdilution method
Pichia kudriavzevii [3] = assay: Antifungal activity against Candida krusei ATCC 6258 bloodstream forms assessed as minimum concentration producing >= 50% growth reduction after 24 hrs by M27-A3 microdilution method; details: ATCC 6258, 24 h
Pichia kudriavzevii [4] = assay: Antifungal activity against Candida krusei CK1 bloodstream forms after 24 hrs by time-kill analysis; details: CK1, 24 h
Pichia kudriavzevii [5] = assay: Fungicidal activity against Candida krusei CK1 bloodstream forms after 24 hrs by time-kill analysis; details: CK1, 24 h
Pichia kudriavzevii [6] = assay: Antifungal activity against Candida krusei CK2 bloodstream forms after 24 hrs by time-kill analysis; details: CK2, 24 h
Pichia kudriavzevii [7] = assay: Fungicidal activity against Candida krusei CK2 bloodstream forms after 24 hrs by time-kill analysis; details: CK2, 24 h
Pichia kudriavzevii [8] = assay: Antifungal activity against Candida krusei CK6 bloodstream forms after 24 hrs by time-kill analysis; details: CK6, 24 h
Pichia kudriavzevii [9] = assay: Fungicidal activity against Candida krusei CK6 bloodstream forms after 24 hrs by time-kill analysis; details: CK6, 24 h
Pichia kudriavzevii [10] = assay: Antifungal activity against Candida krusei CK18 bloodstream forms after 24 hrs by time-kill analysis; details: CK18, 24 h
Pichia kudriavzevii [11] = assay: Fungicidal activity against Candida krusei CK18 bloodstream forms after 24 hrs by time-kill analysis; details: CK18, 24 h
Pichia kudriavzevii [12] = assay: Antifungal activity against Candida krusei EU123 bloodstream forms after 24 hrs by time-kill analysis; details: EU123, 24 h
Pichia kudriavzevii [13] = assay: Fungicidal activity against Candida krusei EU123 bloodstream forms after 24 hrs by time-kill analysis; details: EU123, 24 h
Pichia kudriavzevii [14] = assay: Antifungal activity against Candida krusei EU220 bloodstream forms after 24 hrs by time-kill analysis; details: EU220, 24 h
Pichia kudriavzevii [15] = assay: Fungicidal activity against Candida krusei EU220 bloodstream forms after 24 hrs by time-kill analysis; details: EU220, 24 h
Pichia kudriavzevii [16] = assay: Antifungal activity against Candida krusei CY118 bloodstream forms after 24 hrs by time-kill analysis; details: CY118, 24 h
Pichia kudriavzevii [17] = assay: Fungicidal activity against Candida krusei CY118 bloodstream forms after 24 hrs by time-kill analysis; details: CY118, 24 h
Pichia kudriavzevii [18] = assay: Antifungal activity against Candida krusei ATCC 6258 bloodstream forms after 24 hrs by time-kill analysis; details: ATCC 6258, 24 h
Pichia kudriavzevii [19] = assay: Fungicidal activity against Candida krusei ATCC 6258 bloodstream forms after 24 hrs by time-kill analysis; details: ATCC 6258, 24 h
Pichia kudriavzevii [20] = assay: Antifungal activity against Candida krusei ATCC 6258 bloodstream forms assessed as time to achieve 50% fungal growth reduction at 0.25 mg/L by time-kill analysis
Pichia kudriavzevii [21] = assay: Antifungal activity against Candida krusei ATCC 6258 bloodstream forms assessed as time to achieve 90% fungal growth reduction at 0.25 mg/L by time-kill analysis
Pichia kudriavzevii [22] = assay: Antifungal activity against Candida krusei ATCC 6258 bloodstream forms assessed as time to achieve 99% fungal growth reduction at 0.25 mg/L by time-kill analysis
Pichia kudriavzevii [23] = assay: Antifungal activity against Candida krusei ATCC 6258 bloodstream forms assessed as time to achieve 99.9% fungal growth reduction at 0.25 mg/L by time-kill analysis
Pichia kudriavzevii [24] = assay: Antifungal activity against Candida krusei ATCC 6258 bloodstream forms assessed as time to achieve 50% fungal growth reduction at 1 mg/L by time-kill analysis
Pichia kudriavzevii [25] = assay: Antifungal activity against Candida krusei ATCC 6258 bloodstream forms assessed as time to achieve 90% fungal growth reduction at 1 mg/L by time-kill analysis
Pichia kudriavzevii [26] = assay: Antifungal activity against Candida krusei ATCC 6258 bloodstream forms assessed as time to achieve 99% fungal growth reduction at 1 mg/L by time-kill analysis
Pichia kudriavzevii [27] = assay: Antifungal activity against Candida krusei ATCC 6258 bloodstream forms assessed as time to achieve 99.9% fungal growth reduction at 1 mg/L by time-kill analysis
Pichia kudriavzevii [28] = assay: Antifungal activity against Candida krusei ATCC 6258 bloodstream forms assessed as time to achieve 50% fungal growth reduction at 4 mg/L by time-kill analysis
Pichia kudriavzevii [29] = assay: Antifungal activity against Candida krusei ATCC 6258 bloodstream forms assessed as time to achieve 90% fungal growth reduction at 4 mg/L by time-kill analysis
Pichia kudriavzevii [30] = assay: Antifungal activity against Candida krusei ATCC 6258 bloodstream forms assessed as time to achieve 99% fungal growth reduction at 4 mg/L by time-kill analysis
Pichia kudriavzevii [31] = assay: Antifungal activity against Candida krusei ATCC 6258 bloodstream forms assessed as time to achieve 99.9% fungal growth reduction at 4 mg/L by time-kill analysis
Pichia kudriavzevii [32] = assay: Antifungal activity against Candida krusei ATCC 6258 bloodstream forms assessed as time to achieve 50% fungal growth reduction at 16 mg/L by time-kill analysis
Pichia kudriavzevii [33] = assay: Antifungal activity against Candida krusei ATCC 6258 bloodstream forms assessed as time to achieve 90% fungal growth reduction at 16 mg/L by time-kill analysis
Pichia kudriavzevii [34] = assay: Antifungal activity against Candida krusei ATCC 6258 bloodstream forms assessed as time to achieve 99% fungal growth reduction at 16 mg/L by time-kill analysis
Pichia kudriavzevii [35] = assay: Antifungal activity against Candida krusei ATCC 6258 bloodstream forms assessed as time to achieve 99.9% fungal growth reduction at 16 mg/L by time-kill analysis
Pichia kudriavzevii [36] = assay: Antifungal activity against Candida krusei ATCC 6258 bloodstream forms assessed as minimum concentration producing >= 50% growth reduction after 48 hrs by M27-A3 microdilution method; details: ATCC 6258, 48 h
Pichia kudriavzevii [37] = assay: Antifungal activity against Candida krusei ATCC 6258 bloodstream forms assessed as minimum concentration producing >= 100% growth reduction after 48 hrs by M27-A3 microdilution method; details: ATCC 6258, 48 h

`CCCCCOc1ccc(-c2cc(-c3ccc(C(=O)N[C@H]4C[C@@H](O)[C@@H](O)NC(=O)[C@@H]5[C@@H](O)[C@@H](C)CN5C(=O)[C@H]([C@H](O)CC(N)=O)NC(=O)[C@H]([C@H](O)[C@@H](O)c5ccc(O)c(OS(=O)(=O)O)c5)NC(=O)[C@@H]5C[C@@H](O)CN5C(=O)[C@H]([C@@H](C)O)NC4=O)cc3)no2)cc1` [MICAFUNGIN] (X1-[Orn(4R-OH,5R-OH)]T[Hyp][hTyr(3S-OH,4S-OH,3'-OSO3H)][Gln(3R-OH)][Pro(3S-OH,4S-Me)]; lactam 1-C) was tested, and the MIC50 (Pichia kudriavzevii [1]) was 0.5 µg/mL (≈ 0.394 µM), the MIC90 (Pichia kudriavzevii [1]) was 0.5 µg/mL (≈ 0.394 µM) and the MFC50 (Pichia kudriavzevii [2]) was 0.5 µg/mL (≈ 0.394 µM). The MFC90 (Pichia kudriavzevii [2]) was 0.5 µg/mL (≈ 0.394 µM), the MFC (Pichia kudriavzevii [2]; Pichia kudriavzevii, ATCC 6258, 48 h) was 0.25 µg/mL (≈ 0.197 µM) and the MIC50 (Pichia kudriavzevii [3]) was 0.25 µg/mL (≈ 0.197 µM). It also gave an MIC90 (Pichia kudriavzevii [3]) of 0.5 µg/mL (≈ 0.394 µM), an MIC (Pichia kudriavzevii [4]) of 0.25 µg/mL (≈ 0.197 µM) and an MFC (Pichia kudriavzevii [5]) of 0.5 µg/mL (≈ 0.394 µM). For the same molecule, the MIC (Pichia kudriavzevii [6]) was 0.5 µg/mL (≈ 0.394 µM), the MFC (Pichia kudriavzevii [7]) was 0.5 µg/mL (≈ 0.394 µM) and the MIC (Pichia kudriavzevii [8]) was 0.5 µg/mL (≈ 0.394 µM). It also gave an MFC (Pichia kudriavzevii [9]) of 0.5 µg/mL (≈ 0.394 µM), an MIC (Pichia kudriavzevii [10]) of 0.25 µg/mL (≈ 0.197 µM) and an MFC (Pichia kudriavzevii [11]) of 0.5 µg/mL (≈ 0.394 µM). The MIC (Pichia kudriavzevii [12]) was 0.12 µg/mL (≈ 0.0945 µM), the MFC (Pichia kudriavzevii [13]) was 0.5 µg/mL (≈ 0.394 µM) and the MIC (Pichia kudriavzevii [14]) was 0.25 µg/mL (≈ 0.197 µM). The MFC (Pichia kudriavzevii [15]) was 0.25 µg/mL (≈ 0.197 µM), the MIC (Pichia kudriavzevii [16]) was 1 µg/mL (≈ 0.787 µM) and the MFC (Pichia kudriavzevii [17]) was 16 µg/mL (≈ 12.6 µM). It also gave an MIC (Pichia kudriavzevii [18]) of 0.12 µg/mL (≈ 0.0945 µM), an MFC (Pichia kudriavzevii [19]) of 0.25 µg/mL (≈ 0.197 µM) and a Time (Pichia kudriavzevii [20]) of 3.1 h. It also gave a Time (Pichia kudriavzevii [21]) of 10.3 h, a Time (Pichia kudriavzevii [22]) of 20.6 h and a Time (Pichia kudriavzevii [23]) of 31 h. It also gave a Time (Pichia kudriavzevii [24]) of 3.1 h, a Time (Pichia kudriavzevii [25]) of 10.2 h and a Time (Pichia kudriavzevii [26]) of 20.5 h. It also gave a Time (Pichia kudriavzevii [27]) of 30.7 h, a Time (Pichia kudriavzevii [28]) of 3.2 h and a Time (Pichia kudriavzevii [29]) of 10.63 h. The Time (Pichia kudriavzevii [30]) was 21.25 h, the Time (Pichia kudriavzevii [31]) was 31.88 h and the Time (Pichia kudriavzevii [32]) was 2.6 h. The Time (Pichia kudriavzevii [33]) was 8.64 h, the Time (Pichia kudriavzevii [34]) was 17.28 h and the Time (Pichia kudriavzevii [35]) was 25.91 h. The MIC50 (Pichia kudriavzevii [36]) was 0.5 µg/mL (≈ 0.394 µM), the MIC90 (Pichia kudriavzevii [36]) was 0.5 µg/mL (≈ 0.394 µM) and the MIC50 (Pichia kudriavzevii [37]) was 0.5 µg/mL (≈ 0.394 µM). It also gave an MIC90 (Pichia kudriavzevii [37]) of 0.5 µg/mL (≈ 0.394 µM).
